Values after ≈ are worked out from the molar mass of the structure shown.
Columns and labels:
Staphylococcus aureus [1] = assay: Antibacterial activity against Staphylococcus aureus assessed as inhibition zone at 25 ug/ml by diffusion method; assay type: functional; conditions: read-out: IZ
[2] = system: Mycobacterium tuberculosis; assay: Antimycobacterial activity against Mycobacterium tuberculosis H37Rv assessed as bacterial growth inhibition by microplate Alamar blue assay; assay type: functional
[3] = Cytotoxicity against African green monkey Vero cells measured after 72 hrs by MTT assay; assay type: toxicity, cell-based; conditions: chlorocebus sabaeus
Staphylococcus aureus [4] = assay: Antibacterial activity against Staphylococcus aureus assessed as inhibition zone at 75 ug/ml by diffusion method; assay type: functional; conditions: read-out: IZ
Staphylococcus aureus [5] = assay: Antibacterial activity against Staphylococcus aureus assessed as inhibition zone at 50 ug/ml by diffusion method; assay type: functional; conditions: read-out: IZ
[6] = Selectivity index, ratio of CC50 for African green monkey Vero cells to MIC for Mycobacterium tuberculosis H37Rv; assay type: toxicity; conditions: read-out: Selectivity Index
[7] = Cytotoxicity against African green monkey Vero cells assessed as inhibition of cell growth at 6.25 ug/ml measured after 72 hrs by MTT assay relative to control; assay type: toxicity, cell-based; conditions: chlorocebus sabaeus, at 6.25 µg/mL
Pseudomonas aeruginosa [8] = assay: Antibacterial activity against Pseudomonas aeruginosa assessed as inhibition zone at 75 ug/ml by diffusion method; assay type: functional; conditions: read-out: IZ
Escherichia coli [9] = assay: Antibacterial activity against Escherichia coli assessed as inhibition zone at 75 ug/ml by diffusion method; assay type: functional; conditions: read-out: IZ
Escherichia coli [10] = assay: Antibacterial activity against Escherichia coli assessed as inhibition zone at 50 ug/ml by diffusion method; assay type: functional; conditions: read-out: IZ
Pseudomonas aeruginosa [11] = assay: Antibacterial activity against Pseudomonas aeruginosa assessed as inhibition zone at 50 ug/ml by diffusion method; assay type: functional; conditions: read-out: IZ
Escherichia coli [12] = assay: Antibacterial activity against Escherichia coli assessed as inhibition zone at 25 ug/ml by diffusion method; assay type: functional; conditions: read-out: IZ
Pseudomonas aeruginosa [13] = assay: Antibacterial activity against Pseudomonas aeruginosa assessed as inhibition zone at 25 ug/ml by diffusion method; assay type: functional; conditions: read-out: IZ

SMILES | zone of inhibition at 25 µg/mL (Staphylococcus aureus [1]) | MIC [2] | CC50 at 72 h [3] | zone of inhibition at 75 µg/mL (Staphylococcus aureus [4]) | zone of inhibition at 50 µg/mL (Staphylococcus aureus [5]) | selectivity ratio [6] | inhibition at 72 h, 6.25 ug/ml [7] | zone of inhibition at 75 µg/mL (Pseudomonas aeruginosa [8]) | zone of inhibition at 75 µg/mL (Escherichia coli [9]) | zone of inhibition at 50 µg/mL (Escherichia coli [10]) | zone of inhibition at 50 µg/mL (Pseudomonas aeruginosa [11]) | zone of inhibition at 25 µg/mL (Escherichia coli [12]) | zone of inhibition at 25 µg/mL (Pseudomonas aeruginosa [13])
O=C(CCc1cn(Cc2ccc(F)cc2)c2ccccc12)N1CCN(C(=O)c2ccc(F)cc2)CC1 | 13 mm | 12.8 µM | 619 µg/mL (≈ 1270 µM) | 23 mm | 17 mm | 198 | 31.9% | 13 mm | 18 mm | 15 mm | – | – | –
O=C(CCc1cn(Cc2cn(Cc3ccc(F)cc3)nn2)c2ccccc12)N1CCN(S(=O)(=O)c2ccc(F)cc2)CC1 | 13 mm | 2.6 µM | 1700 µg/mL (≈ 2810 µM) | 20 mm | 18 mm | 1060 | 11.9% | 15 mm | 25 mm | 20 mm | 10 mm | 13 mm | –
O=C(Cc1c[nH]c2ccccc12)N1CCN(S(=O)(=O)c2ccccc2)CC1 | 13 mm | > 120 µM | – | 18 mm | 15 mm | – | – | 18 mm | 17 mm | 15 mm | 15 mm | 13 mm | 13 mm
O=C(CCc1cn(Cc2cn(Cc3ccc(F)cc3)nn2)c2ccccc12)N1CCN(C(=O)c2ccc(F)cc2)CC1 | 13 mm | 2.8 µM | 1200 µg/mL (≈ 2110 µM) | 20 mm | 15 mm | 750 | 11.7% | 13 mm | 23 mm | 20 mm | – | 15 mm | –
O=C(CCc1cn(Cc2cn(Cc3ccc(F)cc3)nn2)c2ccccc12)N1CCN(C(=O)c2cccnc2)CC1 | 6 mm | 2.9 µM | 1170 µg/mL (≈ 2120 µM) | 18 mm | 15 mm | 732 | 11.7% | 10 mm | 25 mm | 23 mm | – | 15 mm | –
O=C(CCc1cn(Cc2ccc(F)cc2)c2ccccc12)N1CCN(C(=O)c2ccc(Cl)cc2)CC1 | 13 mm | 12.4 µM | 385 µg/mL (≈ 764 µM) | 23 mm | 19 mm | 61.6 | 36.4% | 13 mm | 18 mm | 15 mm | 10 mm | – | –
O=C(CCc1cn(Cc2cn(Cc3ccc(F)cc3)nn2)c2ccccc12)N1CCN(C(=O)c2ccc(Cl)cc2)CC1 | 6 mm | 10.7 µM | 986 µg/mL (≈ 1680 µM) | 18 mm | 15 mm | 158 | 7.9% | 15 mm | 23 mm | 20 mm | 12 mm | 13 mm | –
O=C(Cc1cn(Cc2ccc(F)cc2)c2ccccc12)N1CCN(C(=O)c2ccc(F)cc2)CC1 | 15 mm | 13.2 µM | 448 µg/mL (≈ 946 µM) | 21 mm | 18 mm | 71.7 | 33.8% | 13 mm | 18 mm | 15 mm | 10 mm | – | –

From ChEMBL document CHEMBL5523679, “Discovery of 1,2,3-triazole incorporated indole-piperazines as potent antitubercular agents: Design, synthesis, in vitro biological evaluation, molecular docking and ADME studies” (Bioorg Med Chem, 2024)
